Our source for the IC50 values is PubChem BioAssay AID493002 (Sanford-Burnham Center for Chemical Genomics, 2010).

This assay concerns S. cerevisiae tim23-1 mutant growth, luminescence. The experiment in a line: potency against tim23-1 yeast growth – luminescence, uHTS hits, dose response (AID 493002).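 Note: yeast grown roughly 22 hours at 25 °C before the luminescence read.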
As usually defined, the IC50 is the concentration that gives 50% inhibition. For the molecule `Cc1cc(Nc2ccccc2)nn1C(=O)c1ccccc1`, the IC50 was 12 µM. `O=c1c2ccccc2[nH]c(=S)n1CCN1CCC(=C(c2ccc(F)cc2)c2ccc(F)cc2)CC1`: the IC50 is 5.44 µM. Take `O=C1c2cccc3c(Cl)ccc(c23)C(=O)N1O`: the IC50 is 9.64 µM. With `Oc1ccccc1-c1cc(-c2cccc(F)c2)n[nH]1` the figure was 13.2 µM; with `COc1ccc(O)c(-c2cc(-c3cccs3)[nH]n2)c1`, 12.4 µM; with `O=C(Nc1cc(-c2ccccc2)[nH]n1)c1ccccc1F`, 20.2 µM. As for `Cc1[nH][nH]c(=O)c1C(c1ccc(-c2ccc(F)cc2)o1)c1c(C)[nH][nH]c1=O`, the figure is 7.74 µM; as for `O=C(Nc1ccc(OC(F)(F)F)cc1)N1CCN(c2ccnc3cc(Cl)ccc23)CC1`, 10.5 µM; as for `N#C/C(=C\c1ccc(OCc2ccccc2)cc1)C(N)=O`, 11.7 µM. For `N#C/C(=C\c1c[nH]c2ccccc12)C(=O)NC1CCCC1`, the IC50 was 31.5 µM. As for `Oc1ccc(Cl)cc1CNc1cnc2ccccc2c1`, the IC50 is 15.3 µM. With `CNC(=S)N/N=C/c1cc(Br)cc(Br)c1O`, the IC50 is 3.14 µM. As to `Cc1[nH][nH]c(=O)c1C(c1ccc(-c2ccc(Cl)c(Cl)c2)o1)c1c(C)[nH][nH]c1=O`, the IC50 was 14 µM.

For the molecule `COC(=O)c1ccc(-c2ccc(C(c3c(C)[nH][nH]c3=O)c3c(C)[nH][nH]c3=O)o2)cc1`, the concentration for half-maximal inhibition (IC50) is 11.2 µM. Regarding `CC1(C)c2cc(Cl)ccc2-n2c1cc(O)c(-c1ccccc1)c2=O`, the IC50 is 11.9 µM. With `COC(=O)c1ccc2nc(NC(=O)C3CC3)sc2c1` the figure was 7.12 µM; with `O=C(/C=C/c1ccccc1)Nc1ccc2c(c1)OCCO2`, 11.7 µM. With `c1ccc(-c2cc3cc4c(cc3cn2)OCO4)cc1` the figure was 17 µM; with `O=C(Nc1ccccc1N(C(=O)c1ccco1)S(=O)(=O)c1cccs1)c1ccco1`, 9.78 µM; with `N=c1c2c(-c3ccccc3)c(-c3ccccc3)n(Cc3ccco3)c2ncn1Cc1ccco1`, 9.92 µM. Consider `Clc1nssc1=Nc1nncs1`, for which the IC50 is 3.05 µM.

Take `CCNC(=O)c1c(O)c2ccccc2[nH]c1=O`: the IC50 was 33.5 µM.

On to `O=C(CSc1cccc[n+]1[O-])CSc1cccc[n+]1[O-]`, for which the IC50 was 5.83 µM. Take `O=C(CN1C(=O)S/C(=C/c2ccncc2)C1=O)Nc1ccccc1`: the IC50 was 13.5 µM.

On to `Cc1cc(C(=O)Nc2ccc(Br)cn2)sc1C`, for which the IC50 is 21.1 µM. Regarding `COc1ccc(OCC(=O)Nc2ccc3c(c2)CCC3)cc1`, the IC50 was 15.6 µM.

`O=C(NC(=S)NC(=O)c1ccccc1F)c1ccccc1F`: the IC50 was 6.11 µM.

Turning to `CC(C)Cn1cnc2c(c(-c3ccccc3)c(-c3ccccc3)n2Cc2ccco2)c1=N`, the IC50 was 9.48 µM. With `O=C(CC(=O)c1cc(Cl)ccc1O)c1ccccc1` the figure was 7.07 µM; with `CC1CCc2c(sc3nc(C(C)(C)C)nc(N4CCN(C(=O)CCl)CC4)c23)C1` (stereo not given), 8.61 µM.

Consider `N=c1c2c(-c3ccccc3)c(-c3ccccc3)n(Cc3ccco3)c2ncn1Cc1ccccc1`, for which the IC50 is 10.9 µM. On to `O=C(Nc1ccc2nc(-c3ccccc3)[nH]c2c1)c1cccs1`, for which the IC50 is 3.62 µM. On to `COc1cccc(Nc2nc3ccc(OC)cc3s2)c1`, for which the IC50 was 10.1 µM.

As to `Nc1ccc(O)c2c1C(=O)c1ccccc1C2=O`, the IC50 is 11.3 µM. Regarding `O=C(Nc1ccc2oc(-c3ccccc3)nc2c1)c1cccs1`, the IC50 is 0.39 µM. As to `CC(C)CN1C(=O)c2ccc(NC(=O)c3ccco3)cc2C1=O`, the IC50 is 20.2 µM. On to `Cc1ccc(-c2nc3n(n2)Cc2ccccc2-3)cc1`, for which the IC50 was 15.4 µM.

On to `c1cnc2c(c1)ccc1cccnc12`, for which the IC50 is 9.59 µM.

Take `CCCN(C(=O)c1ccc([N+](=O)[O-])c(C)c1)c1c(N)n(Cc2ccccc2)c(=O)[nH]c1=O`: the IC50 was 5.69 µM.

In the case of `O=C1/C(=C/c2cccs2)COc2ccccc21`, the IC50 was 8.37 µM. For `CCc1ccc(NC(=O)/C(C#N)=C/c2ccncc2)cc1`, the IC50 was 4.41 µM. Regarding `O=C(N/N=C/c1coc2ccc(Cl)cc2c1=O)c1ccncc1`, the IC50 is 22.3 µM. For `Cc1ccc(-c2nc3ccccc3[nH]2)s1`, the IC50 is 6.19 µM. As for `N#Cc1c(-c2ccccc2)cc(-c2ccc(O)cc2)nc1N`, the figure is 5.58 µM; as for `N#C/C(=C/c1ccc(N2CCOCC2)o1)c1nc2ccccc2[nH]1`, 7.2 µM; as for `O=S(=O)(CCSc1ccccn1)c1nc2ccccc2s1`, 10 µM.

For `O=C(N/N=C/c1cccs1)c1cc(-c2cccc3ccccc23)n[nH]1`, the IC50 is 28 µM. On to `Cc1oc2cc(O)cc(O)c2c(=O)c1-c1ccc2c(c1)OCCCO2`, for which the IC50 is 8.84 µM. Take `O=C(c1cc(-c2cccc(O)c2)on1)N1CCc2ccccc2C1`: the IC50 was 16 µM. Consider `CCN(CC)c1ccc(/C=N/NC(=O)c2ccc3c(c2)OCCO3)cc1`, for which the IC50 was 11.3 µM.

Regarding `CCOC(=O)c1c(C=O)c2sc(C)cc2n1C`, the concentration for half-maximal inhibition (IC50) was 18 µM. For `Nc1ccc(C(=O)Nc2nc3ccccc3s2)cc1`, the IC50 was 10.4 µM. As for `O=c1/c(=C/c2cccc3ccccc23)sc2ncnn12`, the figure is 7.13 µM; as for `Cc1ccc(NC(=O)CN2C(=O)CN=C(c3ccccc3)c3cc(Cl)ccc32)cc1`, 13.1 µM; as for `CSC1=N/C(=C\c2ccc(C)cc2)C(=O)S1`, 10.3 µM.

Take `c1ccc(Nc2nc(-c3ccccc3)nc3ccccc23)cc1`: the IC50 is 5.08 µM. For the molecule `Cc1ccc(OCc2cc(C(=O)NCc3cnn(-c4cccc(F)c4)c3)no2)cn1`, the IC50 was 14.8 µM. In the case of `O=C(Nc1ccn(Cc2ccc(Cl)cc2)n1)c1ccc2c(c1)OCO2`, the IC50 is 11.1 µM.

`Cn1cc(C(=O)c2ccc(Cl)cc2)cc1-c1nc2ccccc2n1C`: the IC50 is 12.3 µM. Regarding `Nc1ccc2nc(SCc3ccccc3F)sc2c1`, the 50% inhibitory concentration (IC50) was 7.18 µM. Take `O=[N+]([O-])c1cc(O)c2ncccc2c1`: the IC50 was 11.4 µM. Consider `CSc1nnc(C)c(/C=C/NOCc2ccc(Cl)cc2)n1`, for which the IC50 was 6.13 µM. As for `N#C/C(=C\c1ccc(Cl)cc1)C(=O)Nc1cccnc1`, the 50% inhibitory concentration (IC50) is 5.72 µM. With `O=[N+]([O-])c1ccc(N/N=C/c2cccc(O)c2)cc1`, the IC50 was 6.99 µM. With `O=C(c1cc(-c2ccc(O)cc2)on1)N1CCc2ccccc2C1`, the IC50 is 8.85 µM. With `O=C(Nc1cccc(NC(=O)c2ccco2)c1)c1cccc(Br)c1`, the IC50 was 13.1 µM. Turning to `COC(=O)N/N=C/c1ccc(-c2cc(Cl)cc(Cl)c2)o1`, the IC50 is 8.73 µM. As to `CCC(C)c1ccc(NC(=O)C2CC3CCC2C3)cc1` (stereo not given), the IC50 was 12.5 µM. As for `COn1c(=O)c(-c2cccs2)[n+]([O-])c2ccccc21`, the figure is 3.96 µM.

On to `O=C(Nc1cccc(F)c1)N1CC=C(c2ccc(Cl)cc2)CC1`, for which the IC50 was 12.8 µM.

Regarding `O=C(Nc1ccc(-c2cn3c(n2)SCC3)cc1)c1ccco1`, the IC50 is 8.88 µM. Take `c1ccc(-c2nc(NCc3cccs3)c3ccccc3n2)cc1`: the IC50 was 12.7 µM. Take `Cc1ccc(/C=N/NC(=O)c2csc3c2CCCC3)cc1`: the IC50 is 15.1 µM. As for `O=C(Nc1ccccc1)C1C(c2ccccc2)C1(Cl)Cl` (stereo not given), the IC50 is 14.9 µM. For `C#CCOCCOCCOCCNc1nc(N2CCN(C(=O)CCCCCCCCCCNC(=O)[C@H](CCCCN)n3cc(C)nn3)CC2)nc(N2CCN(C(=O)CCCCCCCCCCNC(=O)[C@H](CCCN=C(N)N)n3cc(C[C@@H](C)CC)nn3)CC2)n1`, the IC50 was 10.4 µM. With `C/C(=N\Nc1ccc([N+](=O)[O-])cc1)c1ccc(O)cc1`, the 50% inhibitory concentration (IC50) is 5.17 µM. On to `COc1ccc(C(=O)N2CCc3ccc(NC(=O)c4ccccn4)cc3C2)cc1F`, for which the IC50 is 23.8 µM. For `O=C(CCl)Nc1cccc(-c2cnc3ccccc3n2)c1`, the IC50 was 9.25 µM. Regarding `CO/C(N)=C(\C#N)N=Cc1ccccc1Cl`, the half-inhibitory concentration (IC50) was 8.6 µM. With `Cc1ccc2occ(/C=N/NC(=O)c3ccccc3Br)c(=O)c2c1` the figure was 9.7 µM; with `Cc1ccccc1OCCCSc1nc2ccccc2[nH]1`, 9.44 µM. `CCCCCCn1c(=O)c(-c2ccccc2)c(O)c2ccccc21`: the IC50 is 8.95 µM. With `O=C(NCc1ccc2c(c1)OCO2)c1c(O)nc2sccn2c1=O` the figure was 6.15 µM; with `c1ccc2[nH]c(CSc3nc4ccccc4o3)nc2c1`, 12.3 µM. Regarding `Cc1ccc(Nc2nc(Cl)nc(NC(C)(C)C)n2)cc1`, the IC50 is 16 µM. With `Cc1cccn2c(=O)c(C(=O)NC3CCCCC3)c(O)nc12` the figure was 15.6 µM.

Regarding `O=Cc1sc(Nc2ccccc2)nc1Cl`, the half-maximal inhibitory concentration (IC50) was 11.7 µM. On to `CC(C)OC(=O)c1cccnc1SCc1cc(=O)n2ccccc2n1`, for which the IC50 is 9.68 µM. For `O=C1/C(=C/c2cccs2)Cc2ccccc21`, the IC50 was 16.1 µM. For the molecule `CCOC(=O)c1ccc(NC(=O)CSc2nc(=O)n3cccc(C)c3n2)cc1`, the IC50 is 13 µM. `C#CCOCCOCCOCCNc1nc(N2CCN(C(=O)CCCCCCCCCCNC(=O)[C@H](CCCCN)n3cc(CCO)nn3)CC2)nc(N2CCN(C(=O)CCCCCCCCCCNC(=O)[C@H](CCCCN)n3cc(C[C@@H](C)CC)nn3)CC2)n1`: the IC50 was 17.1 µM. As for `Cc1ccc2occ(C(=O)c3ccco3)c(=O)c2c1`, the IC50 is 9.16 µM. For `Cc1ccc(-c2nc(CNC(=O)c3cc(C)on3)cs2)cc1`, the IC50 is 15 µM. With `O=Cc1cn(CCOc2ccccc2F)c2ccccc12` the figure was 13 µM. For the molecule `CS(=O)(=O)c1ccc2nc(NC(=O)c3ccco3)sc2c1`, the IC50 is 19.4 µM.

As for `Oc1ccccc1C1NN=C(c2ccccc2)S1` (stereo not given), the IC50 was 18.3 µM.

Consider `O=c1c(-c2ccc3c(c2)OCCO3)c(C(F)(F)F)oc2cc(O)cc(O)c12`, for which the 50% inhibitory concentration (IC50) is 12.6 µM. As to `O=C(c1cccnc1)C1Cc2ccccc2C1=O` (stereo not given), the IC50 was 9.94 µM.

In the case of `Cc1nc(-c2ccc(NC(=O)C3CC3)cc2)cs1`, the IC50 was 20.2 µM. As for `CC(C)c1nc(NCCO)c(C#N)c2c1CCCC2`, the IC50 was 12.4 µM. For the molecule `Nc1c(C(=O)Nc2ccc3c(c2)OCCO3)nnn1Cc1ccccc1Cl`, the IC50 was 12.4 µM. For the molecule `N#C/C(=C\c1ccc(Cl)cc1)C(=O)NC1CC1`, the IC50 was 7.09 µM. As for `COc1cc(/C=N/NC(=O)c2ccc(N)cc2)ccc1OC(=O)c1cccc(C)c1`, the IC50 was 9.83 µM. Consider `CC(C)(C)c1csc(NC(=O)c2ccc(Cl)s2)n1`, for which the IC50 is 4.07 µM. With `CC(=O)Nc1cccc(-c2cc(-c3c(Cl)cccc3Cl)no2)c1` the figure was 11.1 µM.
